Assay type in all cases: physicochemical
Series [1] can be described thus: One week accelerated stability testing (Example 3). On the procedure:
The stability of Phosphate Polymorphic Form A and Free Base Polymorphic Form A were evaluated under accelerated conditions.

Series [2] can be described thus: Solid stability of free base and salts at 60° C. and 40° C./75% RH (38.3, Example 48). Particulars: for chemical stability / physical stability (crystal form by XRPD): 60° C. and 40° C./75% RH for 7 days; for Crystal form day 7: XRPD. On the procedure:
Samples of TPA023B Free Base, TPA023B chloride, TPA023B besylate, and TPA023B sulfate were mounted on stability at 60° C. and 40° C./75% RH for up to 7 days. At day-0, day-3 and day-7, the samples were dissolved in diluent to prepare solutions at 0.5 mg/mL for HPLC analysis. Solid samples were analyzed by XRPD to determine the crystal form.
Solid samples were examined using D8 ADVANCE X-ray diffractometer (Bruker). The diffractometer was equipped with LynxEye detector. In XRPD analysis, samples were scanned from 3 to 40° 2θ at a step of 0.02° 2θ. The tube voltage and current were 40 KV and 40 mA, respectively.

Series [3] in a line: Intrinsic dissolution rate in SGF (Example 16). Particulars: 37° C., 100 rpm, linear scope within 2 to 120 min. On the procedure: About 100 mg of Free Base Polymorphic Form A or Phosphate Polymorphic Form A was weighed into the intrinsic dissolution apparatus and the sample compressed for 1 minute with a compression force of ˜4 MPa to form a compacted pellet within the stainless-steel die. All loose powder was removed from the surface of the die. The intrinsic dissolution shaft was connected with the stainless-steel die and tightened so only one surface of the pellet was exposed (surface area=0.496 cm^2). The shaft in the spindle was adjusted to ensure the exposed surface of the compacted tablet was ˜3.8 cm from the bottom of the vessel when lowered. The temperature of chamber water was set at 37° C.±0.5° C., the shaft rotation at 100 rpm and the sampling time points at 2, 5, 10, 15, 30, 45, 60, 120 min. SGF was used as dissolution medium (900 mL). At each time point, solution samples were filtered, and the supernatant was analyzed by HPLC-UV.

Series [4] is described as follows: Solubility in aqueous buffers, SGF, FaSSIF and FeSSIF (Example 15). Particulars: ~20-25° C., ~24 hours; for solubility thermodynamic: 20 °C, thermodynamic from solid, read-out: Measured Conc.; for Measured Conc. (μg/mL): LOQ: 0.1 μg/mL. On the procedure: About 2 mg of test article was added to a 1.5 mL vials which contained ˜1.0 mL of one medium listed in Table 7 and Table 8, which was then sealed. The mixtures were stirred at ˜20-25° C. for ˜24 hours. After that, the mixture was filtered by 0.45 μm filter membrane and then the supernatant was analyzed by HPLC.

The nature of series [5]: Dynamic vapor sorption (DVS) of salts (38.9). The following applies: for DVS absorption / moisture: between 0% to 90% RH. On the procedure:
DVS was determined using IGA Sorp (Hiden Isochema, UK). The sample was tested at a targeted RH of 0 to 90% full cycle in step mode. The analysis was performed in 10% RH increments.

A short description of series [6]: Reactive crystallization with 1.1 eq phosphoric acid (Example 65). Particulars: stirred at RT 7 hours. The protocol: About 25 mg of Free Base Form H was dissolved or suspended in ˜1 mL of a selected solvent. […] The solid was isolated and characterized.
Free Base Form H was dissolved or suspended in ˜1 mL selected solvent. […] Solid was isolated and characterized. No new phosphate Form was obtained in reactive crystallization under this method.

Series [7] in a line: Slurry of chloride or besylate salt in EA or heptane at 50° C. overnight. Particulars: slurried in EA or heptane at 50° C. overnight.
Setting [8] is: 40° C./75% RH, listed as Free base (Form A).
Setting [9] is: 60° C., listed as Free base (Form A).

≈ marks a conversion by molar mass, not a printed value. Where a name gives a salt, the structure may show the parent alone. Read-outs that look alike come from different tables or passages of the source.

On to `CC(C)(O)c1cnn2c(-c3ccc(F)c(-c4c(F)cccc4C#N)c3)cnc2n1` [Free Base Polymorphic Form A, 2′,6-difluoro-5′-[3-(1-hydroxy-1-methylethyl)-imidazo[1,2-b][1,2,4]triazin-7-yl]biphenyl-2-carbonitrile], for which the “Assay (%)” value was determined as 102.35% in series [1] (40° C./75% RH (open), 1 week); 101.60% in series [1] (80° C. (open), 1 week); 105.51% in series [1] (Initial, assay criterion 95%-105%); 104.28% in series [1] (Light, ~50 h). The “Purity (%)” value in series [1] (40° C./75% RH (open), 1 week) stood at 98.64%; in series [1] (80° C. (open), 1 week) it was 98.62%; in series [1] (Initial), 98.72%; in series [1] (Light, ~50 h), 98.60%. For the same compound, the figures for the “HPLC Purity (%) day 3” value in series [2] (setting [8]) and in series [2] (setting [9]) were 98.2% and 98.1%, respectively. The entries for the “HPLC Purity (%) day 7” value in series [2] (setting [8]) and in series [2] (setting [9]) were 98.2% and 98.3%, respectively. Moreover, in series [2], the chemical stability result is given as “chemically stable”. The “physical stability (crystal form by XRPD)” value (“physical stability” below) in series [2] (listed as TPA023B free base) is on record as “physically stable”; in series [2] (listed as TPA-23B free base) it was “remained unchanged”. The “HPLC Purity (%) day 0” value in series [2] (listed as Free base (Form A)) turned out to be 98.1%. Besides, the intrinsic dissolution rate in series [3] is 5×10^−5 mg·cm^2·min^−1. Besides, the figures for the “Measured Conc.” value in series [4] (Purified water) and in series [4] (pH 1.2 Hydrochloric Acid Buffer (50 mM)) were 0.14 µg/mL and 9.77 µg/mL, respectively. Besides, the solubility thermodynamic is 2.11 µg/mL (≈ 5.39 µM) in series [4] (fasted-state simulated intestinal fluid (FaSSIF), fassif, FaSSIF); 9.63 µg/mL (≈ 24.6 µM) in series [4] (fed-state simulated intestinal fluid (FeSSIF), fessif, FeSSIF); 1.38 µg/mL (≈ 3.53 µM) in series [4] (simulated gastric fluid (SGF), simulated gastric fluid, SGF). For the same compound, the “Measured Conc. (μg/mL)” value in series [4] (pH 3.0 citrate buffer (100 mM)), in series [4] (pH 4.5 citrate buffer (100 mM)), in series [4] (pH 7.4 PBS (50 mM)) and in series [4] (pH 9.0 USP Buffer (50 mM)) was “<LOQ” in each case.
For the compound `CC(C)(O)c1cnn2c(-c3ccc(F)c(-c4c(F)cccc4C#N)c3)cnc2n1` [Chloride Form B, 2′,6-difluoro-5′-[3-(1-hydroxy-1-methylethyl)-imidazo[1,2-b][1,2,4]triazin-7-yl]biphenyl-2-carbonitrile], in series [5], the “XRPD after DVS” value is “No XRPD change after DVS” and the “DVS absorption / moisture” value is reported as “DVS: 0-1.4691% absorption”.
As for `CC(C)(O)c1cnn2c(-c3ccc(F)c(-c4c(F)cccc4C#N)c3)cnc2n1` [Free Base Polymorphic Form H, 2′,6-difluoro-5′-[3-(1-hydroxy-1-methylethyl)-imidazo[1,2-b][1,2,4]triazin-7-yl]biphenyl-2-carbonitrile], the “Result (solid form obtained)” value in series [6] (solvent 1,4-dioxane), in series [6] (solvent ACN), in series [6] (solvent Acetone), in series [6] (solvent BAC), in series [6] (solvent Cyclohexanone) and in series [6] (solvent DCM) was “Phosphate Form A” in each case. The “Result (solid form obtained)” value in series [6] (solvent DEE), in series [6] (solvent EA), in series [6] (solvent IPAC), in series [6] (solvent MEK), in series [6] (solvent MTBE) and in series [6] (solvent N-pentane) was “Phosphate Form A” throughout. Also, the “Result (solid form obtained)” value in series [6] (solvent PPG 2000), in series [6] (solvent Trichloromethane) and in series [6] (solvent polysorbate 80) was “Phosphate Form A” throughout.
`CC(C)(O)c1cnn2c(-c3ccc(F)c(-c4c(F)cccc4C#N)c3)cnc2n1` [TPA023B Besylate (Form A), 2′,6-difluoro-5′-[3-(1-hydroxy-1-methylethyl)-imidazo[1,2-b][1,2,4]triazin-7-yl]biphenyl-2-carbonitrile]: the “crystal form after slurry” value in series [7] is given as “remained unchanged”. In series [2] (40° C./75% RH), the “HPLC Purity (%) day 3” value is 98.8%, the “HPLC Purity (%) day 7” value is given as 98.8% and the “Crystal form day 7” value is recorded as “three extra peaks”. Also, the “Crystal form day 7” value in series [2] (40° C./75% RH, listed as TPA-23B besylate) was “three extra peaks”. In addition, in series [2], the chemical stability result is “chemically stable” and the “HPLC Purity (%) day 0” value is 98.8%. In addition, in series [2] (60° C.), the “HPLC Purity (%) day 3” value was determined as 98.8% and the “HPLC Purity (%) day 7” value worked out at 98.8%. In series [5], the “XRPD after DVS” value is on record as “No XRPD change after” and the “DVS absorption / moisture” value is “DVS: 0-1.047% moisture”.
With `CC(C)(O)c1cnn2c(-c3ccc(F)c(-c4c(F)cccc4C#N)c3)cnc2n1` [TPA023B Sulfate (Form A), 2′,6-difluoro-5′-[3-(1-hydroxy-1-methylethyl)-imidazo[1,2-b][1,2,4]triazin-7-yl]biphenyl-2-carbonitrile], in series [2] (40° C./75% RH), the “HPLC Purity (%) day 3” value is 98.8% and the “HPLC Purity (%) day 7” value came to 98.8%. Besides, in series [2], the chemical stability result is “chemically stable”, the “physical stability” value was “physically stable” and the “HPLC Purity (%) day 0” value came out at 98.8%. In addition, the “physical stability” value in series [2] (listed as TPA-23B sulfate) is on record as “remained unchanged”. Besides, in series [2] (60° C.), the “HPLC Purity (%) day 3” value was 98.8% and the “HPLC Purity (%) day 7” value was determined as 98.8%. In series [5], the “XRPD after DVS” value is reported as “No XRPD change after”, the hygroscopicity result is “light hygroscopicity” and the “DVS absorption / moisture” value is reported as “DVS: 0-1.206% moisture”.
On to `CC(C)(O)c1cnn2c(-c3ccc(F)c(-c4c(F)cccc4C#N)c3)cnc2n1` [TPA023B chloride (Form C), 2′,6-difluoro-5′-[3-(1-hydroxy-1-methylethyl)-imidazo[1,2-b][1,2,4]triazin-7-yl]biphenyl-2-carbonitrile], for which the “crystal form after slurry” value in series [7] was “remained unchanged”. Further, in series [2] (40° C./75% RH), the “HPLC Purity (%) day 3” value came out at 98.8% and the “HPLC Purity (%) day 7” value came to 98.7%. Moreover, in series [2], the chemical stability entry is reported as “chemically stable”, the “physical stability” value is on record as “physically stable” and the “HPLC Purity (%) day 0” value amounted to 97.6%. For the same compound, in series [2] (listed as TPA-23B chloride), the “physical stability” value is recorded as “remained unchanged”. Besides, in series [2] (60° C.), the “HPLC Purity (%) day 3” value stood at 98.4% and the “HPLC Purity (%) day 7” value was 98.4%.

The values above are taken from patent US12617794B2, “GABAA positive allosteric modulator compounds, methods of making, and uses thereof” (NEUROCYCLE THERAPEUTICS, INC., priority 2019, dated 2026).
